According to US7357913B2, “Methods for detecting, prognosing, or monitoring a disorder by comparing relative flux rates of two or more biological molecules in vivo” (The Regents of the University of California, priority 2003, dated 2008):
“Also recorded” adds a separate entry of the source.

How the values were obtained:
[1] = tested on: human SW1573 lung cancer cells; experiment: Tumor cell proliferation in nude mice with SW1573 cells, paclitaxel; format: in vivo; settings: increasing doses, 2H2O labeling 24 hours
Method: (§1) Nude mice were implanted with human SW1573 lung cancer cells (5×10^6 cells/animal), injected with varying doses of paclitaxel, and labeled with ^2H2O for 24 hours. Both vehicle (1:1 [v/v] solution of ethanol:cremephor EL) and paclitaxel stock (dissolved in 1:1 v/v solution of ethanol:cremephor EL) were diluted 1:6, prior to injection into animals, with sterile 0.1 M Phosphate Buffered Saline (PBS). Tumor cells and bone marrow cells were removed using techniques well known in the art and as described, supra.
(§2) Colonocytes were removed as follows: The colon was removed from animals and washed with 0.1 M Phosphate Buffered Saline (PBS), cut open, and incubated in PBS containing collagenase type2 (72 mg/mL) and DNase (10 μg/mL) at 37° C., gently shaken for 40 minutes. After incubation, tissue was gently scraped and cells were collected by centrifugation at 800×g for 5 minutes at 4° C. The pellet was homogenously suspended in 45% percoll in 1.6% JMEM medium. The suspension was applied on top of a 5 mL cushion of 45% (v/v) percoll in a 75% percoll gradient and centrifuged at 350×g for 30 minutes at room temperature. Colonocytes were collected and washed twice with PBS. Debris was then separated from the cell suspension using a […] filter. […] FIG. 11 depicts the results.

mouse bone marrow cells = experiment: Bone marrow cell proliferation in nude mice, paclitaxel; format: in vivo; settings: SW1573, increasing doses, 2H2O labeling 24 hours
Method: as §1, §2

[2] = tested on: mouse colon cells (colonocytes); experiment: Colonocyte proliferation in nude mice, paclitaxel; format: in vivo; settings: SW1573, increasing doses, 2H2O labeling 24 hours
Method: as §1, §2

liver cell = experiment: Liver cell proliferation after griseofulvin in chow; settings: C57BL/6 mice, below the no observable effect level, 5 days
Method: (§3) Cell proliferation and collagen synthesis (turnover) were also assessed concurrently (i.e., simultaneously) in mice (C57BL/6 and Balb/c) fed griseofulvin. Griseofulvin is recognized as a hepatotoxin, inducing cell proliferation and porphyria. Mice were administered griseofulvin in their chow (1% w/w) for 5 days.

liver collagen = experiment: Liver collagen synthesis (turnover) after griseofulvin in chow; format: in vivo, mouse; settings: C57BL/6 mice, doses tested, 5 days (data not shown)
Method: as §3

Compound	tumor cell proliferation relative to vehicle controls [1]	bone marrow cell proliferation relative to vehicle controls (mouse bone marrow cells)	colonocyte proliferation relative to vehicle controls [2]	liver cell proliferation, lowest dose / levels below the NOEL (liver cell)	liver collagen synthesis (collagen turnover) (liver collagen)
CC(=O)O[C@H]1C(=O)[C@@]2(C)[C@H]([C@H](OC(=O)c3ccccc3)[C@]3(O)C[C@H](OC(=O)[C@H](O)[C@@H](NC(=O)c4ccccc4)c4ccccc4)C(C)=C1C3(C)C)[C@]1(OC(C)=O)CO[C@@H]1C[C@@H]2O [paclitaxel]	inhibitory effect, in a dose-dependent manner; also recorded: inhibited, in a dose-dependent manner	little or no effect	inhibitory effect, in a dose-dependent manner; also recorded: inhibited, in a dose-dependent manner		
COC1=CC(=O)C[C@@H](C)[C@]12Oc1c(Cl)c(OC)cc(OC)c1C2=O [griseofulvin]				pronounced effects and dose responsiveness; also recorded: observable effect	no increase; also recorded: no effect
